Converted amounts (≈) assume the structure as drawn. Where a SMILES comes first, the peptide text is derived from it. Bridges are numbered along the chain shown (N, C = ends). The star is where a group is joined. Orn(α-tetramethylguanidino) = CN(C)C(=N[C@@H](CCCN)C(=O)*)N(C)C
Key:
S. pullorum CVCC1789 = assay type: cell-based, Salmonella pullorum
Description: (§1) The antimicrobial activity of peptides was determined by the microbroth dilution method ([Zhang et al., 2014]). The bacterial strains were incubated in Mueller-Hinton (MH) medium at 28°C or 37°C overnight. Bacteria (1 × 10^5 CFU/mL) were added into 96-well plates, followed by the addition of serial dilutions of peptides (from 0.0625 to 128 μg/mL). The plates were incubated at 37°C for 18–24 h. The minimal inhibitory concentration (MIC) value was determined as the lowest peptide concentration at which no bacterial growth was observed.

E. tarda [1] = experiment: SEM and TEM morphology; assay type: cell-based, Edwardsiella tarda; conditions: 4× MIC, 2 h
Description: To further characterize the bactericidal effects of the peptides, scanning electron microscopy (SEM) and transmission electron microscopy (TEM) were used to visualize morphological changes ([Yang et al., 2019]). E. tarda was cultured to logarithmic growth stage (10^8 CFU/mL) and diluted with 0.01 M PBS (pH 7.4) to OD600 nm = 1. E. tarda cells were treated with 4× MIC peptides at 37°C for 2 h and the untreated cells were used as the control. Briefly, after centrifugation, the bacterial cells were washed three times with 0.1 M PBS (pH 7.2) and fixed overnight at 4°C with 2.5% glutaraldehyde. After washing again, the cells were fixed with 1% osmium tetroxide (OsO4) for 2 h and dehydrated in a graded ethanol series (50%–70%–85%–95% × 2–100%, × 2) for 15 min, respectively. The samples were then dried by CO2, sputtered with gold-palladium, and observed on a QUANTA200 SEM (FEI, Philips, Netherlands).
E. tarda cells were treated peptides before fixation as described above. The bacteria were washed with 0.01 M PBS (pH 7.4) for five times, 7 min each time, and fixed with 1% osmium acid buffer (4°C) for 1 h. After dehydration with a graded acetone series (30%–50%–70%–85%–95%–100% × 3), the cells were immersed in mixtures of acetone and resin (3:1, 1:1 and 1:3, respectively) for 40 min and in a pure epoxy resin overnight. The samples were then embedded in embedding medium and polymerized at 45°C for 3 h and at 65°C for 24 h, respectively. The sections were prepared using an ultramicrotome, stained with 1% uranyl acetate, and visualized by a JEM1400 (JEDL, Tokyo, Japan).

LPS = LPS binding, BODIPY-TR-cadaverine (BC) probe displacement; conditions: 0.5 μM LPS, 5 μM BC, Tris buffer pH 7.4; peptides 0.049 to 50 μM
Description: The BODIPY’-TR-cadaverine (BC) probe was used to determine the ability of peptides to bind to LPS ([Wang et al., 2020]). 0.5 μM LPS was incubated with 5 μM BC in […] Tris buffer (pH 7.4) for 4 h at 37°C. Subsequently, the peptides were added into the mixture and the final concentrations of peptides ranged from 0.049 to 50 μM. Ampicillin was used as the negative control. Changes in fluorescence were measured by a fluorescence spectrophotometry at room temperature (excitation/emission, 580/620 nm).

E. tarda [2] = experiment: Post-antibiotic effect (PAE); assay type: cell-based, Edwardsiella tarda; conditions: for PAE: 2 h exposure, E. tarda, 28°C, n = 3
Description: E. tarda cells were incubated with peptides (1×, 2×, or 4× MIC) for 2 h, diluted, and cultured at 28°C and 200 rpm. An aliquot of samples (50 μL) were taken for CFU counts at different time intervals until bacterial cultures became turbid. Bacteria treated with the N6NH2, GUON6NH2 or vancomycin were used as the positive control; bacteria without treatment were used as the blank control. The PAE was calculated using the following formula: PAE = T–C, where T is the time for the CFU counts to increase by 10-fold above the count observed immediately after drug removal, and C is the corresponding time for the untreated control ([Oh et al., 2019]).

[3] = test system: intracellular E. tarda in RAW 264.7 macrophages; assay type: cell-based, Edwardsiella tarda; conditions: for killing of intracellular bacteria: 5–50× MIC, RAW 264.7; for killing of intracellular bacteria / killing efficacy against intracellular E. tarda: 18 h; for killing efficacy against intracellular E. tarda: 1
Description: For intracellular activity, RAW 264.7 macrophages (2.5 × 10^5 cells/mL) were cultured for 24 h in DMEM with 10% FBS (without antibiotics) ([Edwards and Massey, 2011]). Meanwhile, mid-log phase E. tarda were collected by centrifugation, diluted to a concentration of 2.5 × 10^8 CFU/mL in DMEM with 10% FBS (without antibiotic), and incubated with RAW 264.7 macrophages for 0.5 h. Gentamicin (1,000 μg/mL) was then added into the cells and incubated for 30 min to remove extracellular bacteria. After washing twice with PBS, […], washed again, and lysed with Hanks buffered saline solution (0.1% bovine serum albumin and 0.1% Triton-X). The numbers of intracellular bacteria were counted at 0 and 18 h, respectively.

E. tarda [4] = experiment: Time-killing curve; assay type: cell-based, Edwardsiella tarda; conditions: 2× or 4× MIC, MHB, 1 × 10^5 CFU/mL, 28°C
Description: Time-killing curve of peptides was performed according to the previous method ([Flamm et al., 2019]). E. tarda was cultured to logarithmic phase, diluted in Mueller Hinton broth (MHB) (1 × 10^5 CFU/mL) containing 1×, 2×, or 4× MIC of peptides, and cultured at 28°C (200 rpm). PBS was added as a control. Bacterial samples (100 μL) were removed at different time intervals (0, 0.5, 1, 1.5, 2, 4, 6, 8, 10, 12, 22, and 24 h) and were counted on MH solid plates. The time-killing curves of peptides were plotted. Bacterial cells treated with 2× MIC norfloxacin and without treatment were used as the positive and blank controls, respectively.

E. coli CVCC1515 = assay type: cell-based, Escherichia coli
Description: as §1

E. coli CVCC25922 = assay type: cell-based, Escherichia coli
Description: as §1

RAW 264.7 macrophages = assay type: cell-based, mouse
Description: To quantify peptide uptake, RAW 264.7 macrophages were grown in 12-well plates (2.5 × 10^5 cells/mL, 750 μL/well) for 24 h. Then, the cells were treated with FITC-N6NH2 and FITC-GUON6NH2 (1, 5, 10, 25, and 50× MIC) for 18 h and washed with PBS. To avoid the influence of membrane-bound FITC-labeled peptides, the cells were incubated with 0.04% trypan blue in PBS for 15 min and the fluorescence intensity was analyzed using a FACS Calibur Flow Cytometer (BD, United States) ([Duchardt et al., 2009]).

SMILES | MIC (S. pullorum CVCC1789) [µg/mL] | morphological changes by SEM (E. tarda [1]) | ability to bind to LPS (BC probe displacement) (LPS) | PAE (E. tarda [2]; 1× MIC) [h] | PAE (E. tarda [2]; 2× MIC) [h] | PAE, times longer than that of N6NH2 (E. tarda [2]; 4× MIC) [times] | PAE (E. tarda [2]; 4× MIC) [h] | killing of intracellular bacteria [3] | killing efficacy against intracellular E. tarda [3] | time to completely kill E. tarda (E. tarda [4]) [h] | MIC (E. coli CVCC1515) [µg/mL] | MIC (E. coli CVCC25922) [µg/mL] | percentages of florescent cells (RAW 264.7 macrophages) | intracellular inhibition rate against E. tarda ([3]; 24 h, 50)
CC(C)[C@@H]1NC(=O)CNC(=O)[C@H](CC(N)=O)NC(=O)[C@H](CCCNC(=N)N)NC(=O)[C@H](Cc2ccc(O)cc2)NC(=O)[C@H](C(C)C)NC(=O)[C@@H](NC(=O)[C@@H](NC(=O)[C@H](CC(N)=O)NC(=O)[C@H](Cc2c[nH]c3ccccc23)NC(=O)[C@H](C)NC(=O)[C@H](Cc2ccccc2)NC(=O)[C@H](CCCN)N=C(N(C)C)N(C)C)C(C)C)CSSC[C@@H](C(=O)N[C@@H](Cc2c[nH]cn2)C(=O)N[C@@H](CCCNC(=N)N)C(=O)N[C@@H](CCCNC(=N)N)C(=O)N[C@@H](C)C(=O)N[C@@H](CC(N)=O)C(N)=O)NC(=O)[C@H](C(C)C)NC(=O)[C@H](CCCNC(=N)N)NC1=O [GUON6NH2] ({Orn(α-tetramethylguanidino)}-FAWNVCVYRNGVRVCHRRAN-NH2; disulfide 6-15) | 8 (≈ 3.04 µM) | some protrusions were observed on the cell surfaces | V112N6NH2 > GUON6NH2 > N6NH2 > DN6NH2 > N6PNH2 | 1.54 | 1.51 | 2.65 | 3.97 | killed all intracellular bacteria | over 97.07% | ≤ 6 | 2 (≈ 0.76 µM) | 4 (≈ 1.52 µM) | 16.1–86.5% | 
CC(C)[C@@H]1NC(=O)CNC(=O)[C@H](CC(N)=O)NC(=O)[C@H](CCCNC(=N)N)NC(=O)[C@H](Cc2ccc(O)cc2)NC(=O)[C@H](C(C)C)NC(=O)[C@@H](NC(=O)[C@@H](NC(=O)[C@H](CC(N)=O)NC(=O)[C@H](Cc2c[nH]c3ccccc23)NC(=O)[C@H](C)NC(=O)[C@H](Cc2ccccc2)NC(=O)CN)C(C)C)CSSC[C@@H](C(=O)N[C@@H](Cc2cnc[nH]2)C(=O)N[C@@H](CCCNC(=N)N)C(=O)N[C@@H](CCCNC(=N)N)C(=O)N[C@@H](C)C(=O)N[C@@H](CC(N)=O)C(N)=O)NC(=O)[C@H](C(C)C)NC(=O)[C@H](CCCNC(=N)N)NC1=O [N6NH2] | 8 (≈ 3.23 µM) | some protrusions were observed on the cell surfaces | V112N6NH2 > GUON6NH2 > N6NH2 > DN6NH2 > N6PNH2 | 1.75 | 1.67 |  | 1.5 | killed all intracellular bacteria | 96.82% | ≤ 6 | 2 (≈ 0.808 µM) | 4 (≈ 1.62 µM) | 27.6–79.8% | 96.82–100%
